The structures appear in SMILES notation.

The test deals with Nitric oxide synthase, inducible (Homo sapiens, UniProt P35228). As to the kind of experiment: Inhibition of inducible nitric oxide synthase in activated macrophages.
Chain of Nitric oxide synthase, inducible (P35228 whole entry): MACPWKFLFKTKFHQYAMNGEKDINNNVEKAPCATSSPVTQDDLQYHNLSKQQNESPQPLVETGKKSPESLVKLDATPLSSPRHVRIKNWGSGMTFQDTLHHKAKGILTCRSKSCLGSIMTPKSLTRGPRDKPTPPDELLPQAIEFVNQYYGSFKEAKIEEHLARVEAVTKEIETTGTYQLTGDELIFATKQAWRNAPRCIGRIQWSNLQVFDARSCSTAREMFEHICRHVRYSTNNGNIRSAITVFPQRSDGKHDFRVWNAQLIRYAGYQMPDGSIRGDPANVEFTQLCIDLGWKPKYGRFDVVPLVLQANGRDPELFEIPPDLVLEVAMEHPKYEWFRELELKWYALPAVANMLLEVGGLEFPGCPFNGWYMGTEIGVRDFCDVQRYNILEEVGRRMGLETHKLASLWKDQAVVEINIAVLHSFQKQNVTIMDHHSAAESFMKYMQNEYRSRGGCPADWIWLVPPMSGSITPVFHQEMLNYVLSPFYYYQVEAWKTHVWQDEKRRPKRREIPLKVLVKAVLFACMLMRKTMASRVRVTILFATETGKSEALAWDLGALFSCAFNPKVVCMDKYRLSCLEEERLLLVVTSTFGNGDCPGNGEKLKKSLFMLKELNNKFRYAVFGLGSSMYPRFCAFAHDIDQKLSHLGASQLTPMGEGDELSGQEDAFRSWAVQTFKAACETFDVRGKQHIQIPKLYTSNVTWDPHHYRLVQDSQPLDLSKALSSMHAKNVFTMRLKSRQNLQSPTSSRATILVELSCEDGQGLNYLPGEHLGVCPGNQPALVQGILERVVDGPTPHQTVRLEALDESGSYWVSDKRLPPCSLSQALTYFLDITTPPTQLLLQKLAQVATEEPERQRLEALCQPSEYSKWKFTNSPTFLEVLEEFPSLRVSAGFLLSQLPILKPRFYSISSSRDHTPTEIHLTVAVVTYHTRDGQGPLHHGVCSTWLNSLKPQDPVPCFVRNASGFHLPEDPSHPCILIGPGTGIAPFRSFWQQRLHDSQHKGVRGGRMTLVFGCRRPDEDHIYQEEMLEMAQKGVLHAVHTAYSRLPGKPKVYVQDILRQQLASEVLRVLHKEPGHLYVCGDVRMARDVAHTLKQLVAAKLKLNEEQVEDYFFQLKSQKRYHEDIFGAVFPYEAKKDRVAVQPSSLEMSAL
Turning to `CC1(C)CC[C@]2(C(=O)O)CC[C@]3(C)C(=CC[C@@H]4[C@@]5(C)CC[C@H](O)C(C)(C)[C@@H]5CC[C@]43C)[C@@H]2C1` [Oleanolic acid (OA)(Compound 1)], the concentration for half-maximal inhibition (IC50) was more than 40 µM.

Take `CC1(C)CC[C@]2(C(=O)O)CC[C@]3(C)C(C(=O)CC4[C@@]5(C)C=CC(=O)C(C)(C)C5CC[C@]43C)C2C1` (stereo partly drawn) [(4aS,6aR,6bR,12aR)-2,2,6a,6b,9,9,12a-Heptamethyl-10,14-dioxo-1,3,4,5,6,6a,6b,7,8,8a,9,10,12a,12b,13,14,14a,14b-octadecahydro-2H-picene-4a-carboxylic acid]: the concentration for half-maximal inhibition (IC50) came to 3.3 µM.

As to `CC1(C)CC[C@]2(C(=O)O)CC[C@]3(C)C(=CC[C@@H]4[C@@]5(C)CCC(=O)C(C)(C)[C@@H]5CC[C@]43C)[C@@H]2C1` [Oleanonic Acid], inhibition was half-maximal at 37 µM (IC50).

With `CC1(C)CC[C@]2(C(=O)O)CC[C@]3(C)C(=CCC4[C@@]5(C)C=C(C#N)C(=O)C(C)(C)C5CC[C@]43C)C2C1` (stereo partly drawn) [(4aS,6aS,6bR,12aR)-11-Cyano-2,2,6a,6b,9,9,12a-heptamethyl-10-oxo-1,3,4,5,6,6a,6b,7,8,8a,9,10,12a,12b,13,14b-hexadecahydro-2H-picene-4a-carboxylic acid], the half-inhibitory concentration (IC50) stood at 0.6 µM.

Compound `CC1(C)CC[C@]2(C(=O)O)CC[C@]3(C)C(=CC(=O)C4[C@@]5(C)C=C(C#N)C(=O)C(C)(C)C5CC[C@]43C)C2C1` (stereo partly drawn) [(4aS,6aS,6bR,12aS)-11-Cyano-2,2,6a,6b,9,9,12a-heptamethyl-10,13-dioxo-1,3,4,5,6,6a,6b,7,8,8a,9,10,12a,12b,13,14b-hexadecahydro-2H-picene-4a-carboxylic acid] registered a half-maximal inhibitory concentration (IC50) of 0.04 µM.

On to `CC1(C)CC[C@]2(C(=O)O)CC[C@]3(C)C(=CCC4[C@@]5(C)C=CC(=O)C(C)(C)C5CC[C@]43C)C2C1` (stereo partly drawn) [(4aS,6aS,6bR,12aR)-2,2,6a,6b,9,9,12a-Heptamethyl-10-oxo-1,3,4,5,6,6a,6b,7,8,8a,9,10,12a,12b,13,14b-hexadecahydro-2H-picene-4a-carboxylic acid], for which it took 5.6 µM to reach half-maximal inhibition (IC50).

What is called IC50 is the concentration needed to halve the response being measured. Read a low IC50 as greater potency.

Values taken from BindingDB's records for doi:10.1016/j.bmcl.2005.03.031 (Dartmouth College, 2005).
